Literature values, collected in US11471437B2, “Compositions and methods for treating cannabinoid hyperemesis syndrome with a cannabinoid receptor antagonist” (Opiant Pharmaceuticals, Inc., priority 2019, dated 2022).

Key:
[1] = cited from earlier work
CB1 receptor [2] = biological target: T1, CB1 receptor (Homo sapiens, UniProt P21554); conditions: cited from earlier work
CB1 receptor [3] = biological target: T1, CB1 receptor; design: host or cells: human volunteers (in vivo); conditions: oral administration, normal volunteers; cited from earlier work
[4] = oral formulation for obesity and smoking cessation; cited from earlier work

T1 sequence (P21554 whole entry): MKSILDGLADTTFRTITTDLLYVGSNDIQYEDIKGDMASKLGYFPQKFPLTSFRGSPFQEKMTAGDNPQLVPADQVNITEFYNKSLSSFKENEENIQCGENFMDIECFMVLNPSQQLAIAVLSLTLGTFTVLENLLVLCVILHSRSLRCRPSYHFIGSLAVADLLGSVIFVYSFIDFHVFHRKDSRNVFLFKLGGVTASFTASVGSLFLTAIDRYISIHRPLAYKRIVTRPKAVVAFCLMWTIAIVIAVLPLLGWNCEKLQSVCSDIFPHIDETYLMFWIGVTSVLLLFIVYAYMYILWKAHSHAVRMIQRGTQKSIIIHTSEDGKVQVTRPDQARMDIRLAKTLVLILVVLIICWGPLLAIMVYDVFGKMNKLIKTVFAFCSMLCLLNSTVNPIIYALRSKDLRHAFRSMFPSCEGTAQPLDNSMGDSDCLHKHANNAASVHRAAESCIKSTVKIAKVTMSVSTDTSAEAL

| SMILES | log P [1] | Potency and selectivity for CB1 (CB1 receptor [2]) | Prevention (block) of pharmacological effects of smoked or inhaled THC (CB1 receptor [3]) | Side effects [4] |
| --- | --- | --- | --- | --- |
| CS(=O)(=O)N(c1cc(F)cc(F)c1)C1CN(C(c2ccc(Cl)cc2)c2ccc(Cl)cc2)C1 (racemic) [drinabant, (±)-N-{1-[bis(4-chlorophenyl)methyl]-3-azetidinyl}-N-(3,5-difluorophenyl)methanesulfonamide] | high | potent and selective for CB1 | can prevent (that is, block) some of the pharmacological effects of smoked or inhaled THC |  |
| Cc1c(C(=O)NN2CCCCC2)nn(-c2ccc(Cl)cc2Cl)c1-c1ccc(Cl)cc1 [Rimonabant, 5-(4-chlorophenyl)-1-(2,4-dichloro-phenyl)-4-methyl-N-(piperidin-1-yl)-1H-pyrazole-3-carboxamide] |  |  |  | concerning side effects including psychiatric effects such as depression and mood alterations |
| CCc1c(C(=O)NN2CCCCC2)nn(-c2ccc(Cl)cc2Cl)c1-c1ccc(Br)cc1 [surinabant] |  |  | can prevent (that is, block) some of the pharmacological effects of smoked or inhaled THC |  |
